According to patent publication US20220306630A1, “AGONISTS OF ROR GAMMAt” (BRISTOL-MYERS SQUIBB COMPANY, priority 2019, published 2022):
pEC50: −log10 of the molar value.

Molecular target: T1, RORgT (Homo sapiens, UniProt P51449)
T1 construct: Gal4 (fusion partner); expressed in transfected cells; host or cells: engineered Jurkat cells (Jurkat pEx/Gal/hRORγ CLBD/HYG pG5luc/blast)
T1 sequence (P51449 267-516): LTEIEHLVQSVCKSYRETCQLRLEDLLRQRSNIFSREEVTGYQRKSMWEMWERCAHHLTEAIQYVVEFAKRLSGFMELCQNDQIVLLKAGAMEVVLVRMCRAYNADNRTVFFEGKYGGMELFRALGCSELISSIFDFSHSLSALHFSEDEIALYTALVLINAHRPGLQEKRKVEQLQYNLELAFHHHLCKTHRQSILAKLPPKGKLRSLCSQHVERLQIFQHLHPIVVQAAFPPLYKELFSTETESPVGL
Assay: RORgT Gal4 Luciferase Reporter Gene Assay
Format: cell-based
Conditions: engineered Jurkat cells overexpressing RORgT (LBD or full length) with Gal4 Luc reporter; 18 hours at 37° C.; 40 μM to 0.67 nM; read-out: RORg_GAL4 EC50
Outline: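 Cells exposed to compound 18 hours at 37° C, then lysed for luciferase luminescence. Inhibition of constitutive activity expressed as percent reduction of signal window relative to a control compound.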

| pEC50 | Compound |
| --- | --- |
| 5.95 | COc1ccc(Oc2c(Cl)cc(NC(=O)Cc3cccnc3)cc2Cl)cc1C1CC1 [Example 37, N-(3,5-dichloro-4-(3-cyclopropyl-4-methoxyphenoxy)phenyl)-2-(pyridin-3-yl)acetamide] |
| 7.47 | COc1ccc(Oc2c(Cl)ccc(CNC(=O)Cc3ccc(S(C)(=O)=O)cc3)c2Cl)cc1C(C)C [Example 54] |
| 7.82 | CC(C)c1cc(F)cc(Oc2c(Cl)ccc(CNC(=O)c3ccc(S(C)(=O)=O)cc3)c2Cl)c1 [Example 149] |
| 6.90 | CCS(=O)(=O)N1CCCC(CC(=O)Nc2cc(Cl)c(Oc3ccc(OC)c(C(C)C)c3)c(Cl)c2)C1 (centres unmarked) [Example 322] |
| 6.20 | CC(C)c1cc(F)cc(Oc2c(Cl)cc(NC(=O)OC3CCCN(S(C)(=O)=O)C3)cc2Cl)c1 (centres unmarked) [Example 25, 1-(methylsulfonyl)piperidin-3-yl (3,5-dichloro-4-(3-fluoro-5-isopropylphenoxy)phenyl)carbamate] |
| 7.31 | COc1ncc(Oc2c(Cl)ccc(NC(=O)Cc3ccc(S(C)(=O)=O)cc3)c2Cl)cc1C(C)C [Example 23, N-(2,4-dichloro-3-((5-isopropyl-6-methoxypyridin-3-yl)oxy)phenyl)-2-(4-(methylsulfonyl)phenyl)acetamide] |
| 6.69 | CC(C)c1cc(Oc2c(Cl)cc(NC(=O)Cc3cccnc3)cc2Cl)ccc1Cl [Example 265] |
| 6.83 | COc1ccc(Oc2c(Cl)cc(NC(=O)C[C@H]3CCCN(S(=O)(=O)C(C)C)C3)cc2Cl)cc1C(C)C [Example 321] |
